Measurements: patent publication US9943489B2 (PHARMATWOB LTD., priority 2010, dated 2018)

How the values were obtained:
MPTP mouse model of PD [1] = experiment: Aminoindan in MPTP mouse model of PD, striatal dopamine by HPLC; assay type: in vivo; settings: MPTP mice; SR by ALZET pump for 12 days, compared with vehicle or daily IP injection of same drug
Experimental: (§1) Striatum tissue samples were homogenized in ice in 500 μl homogenization buffer (0.1M perchloric acid, 0.02% EDTA and 1% ETOH) using OMNI Tip homogenizing kit of OMNI International (intermediate speed, 3×10 seconds with 5 seconds intervals). The homogenates were sonicated for 5 min and were then centrifuged at 15,000 rpm at 4° C. for 15 min. The supernatants were transferred into fresh tubes and dopamine content was analyzed by HPLC.
Male C57B1/6 mice weighing 20+/−1 g were used in all experiments (10 mice per group). MPTP was administrated by IP injection at a dose of 40 mg/Kg per day for 5 days. Controls were naïve untreated mice injected with saline, and MPTP-treated mice injected with saline. Aminoindan was applied for 12 days either by daily IP injection or by sustained release using an ALZET pump implanted IP. The effect of the treatments was assessed by measurement of dopamine and its metabolites (dihydroxyphenylacetic acid and homovanillic acid) in left and right striatum taken from the mice at the end of the experiment. Striatum tissue samples were prepared for HPLC as described in Experimental.

[2] = rat, in vivo, 1.5 mg/kg
Experimental: The cannulas were placed either in the colon, duodenum and jugular vein for colonic bolus, duodenal bolus and intravenous bolus administration, respectively. A single bolus dose administration to each compartment was done. In addition, a second indwelling cannula was placed in the right vein of each animal for systemic blood sampling. Blood samples (0.5 ml) were taken at 5 minutes pre-dose, 5, 15, 30, 50, 90, 150 and 200 minutes post-dose. To prevent dehydration, equal volumes of physiological solution were administrated to the rats following each withdrawal of blood sample. […] Non-compartmental pharmacokinetic analysis was performed using Excel software. The area under the curve (AUC) was calculated by non-compartmental analysis to the final measurable sample using the linear-log trapezoid method.

MPTP mouse model of PD [3] = experiment: Rasagiline-pramipexole combinations in MPTP mouse model of PD, striatal dopamine by HPLC; assay type: in vivo; settings: for dopamine levels compared to naïve mice: sustained release over 24 hours
Description: A significant body of biochemical data from human brain autopsy studies and those from animal models point to an ongoing process of oxidative stress in the substantia nigra which could initiate dopaminergic neurodegeneration.
MPTP is converted in the brain into the positively charged molecule MPP^+ (1-methyl-4-phenylpyridinium) by the enzyme monoamine oxidase (MAO)-B, causing parkinsonism in primates by killing certain dopamine-producing neurons in the substantia nigra. MPP^+ acts by interfering with oxidative phosphorylation in mitochondria, causing depletion of ATP and cell death.
as §1
The study included 10 groups of about 7-9 mice each, which were treated according to Table 1. […] MPTP was daily injected, during the initial 5 days (days 0-4), and the drug combinations were administered on days 0-11, either IP or using ALZET pump (ALZET micro-osmotic pump, model 1002 with a rate of 0.25 μl/hr, DURECT Corporation, Cupertino, USA) to simulate sustained release. Groups 5-7 were administered with the drug combination 30 min before MPTP application, daily during the initial five days (day 0-4), and on the following days (5-11) drugs are administrated approximately at the same time each dosing day. The ALZET pump was intraperitonealy implanted 15-17 hours before first MPTP administration (groups 8-10), and the total amount of drugs applied by the pump during the dosing period was identical to that given to the IP-injected groups. Controls were naïve untreated mice injected with saline, and MPTP-administered mice injected with saline.
Body weight was measured prior to dosing and every day during the dosing, and individual body weight changes were calculated. Clinical signs were recorded twice weekly throughout the entire study. At study termination day 12, all animals were euthanatized via CO2 asphyxiation. The brain was rapidly removed, placed on a refrigerated plate and dissected. The left and right striatum were removed, weighted, snap-frozen in liquid nitrogen, and stored in −70° C. until further processing. Striatum tissue samples were prepared for HPLC as described in Experimental.

6-OHDA rat model of PD = settings: 6-OHDA rats; SR by ALZET pump 28 days compared with daily IP injections; amphetamine 1.5 mg/kg IP, 60 min recording
Description: Since in PD it is mainly the dopaminergic nigrostriatal pathway that is subject to degeneration, animal models have been developed in which 6-OHDA lesions of the dopaminergic system were made by unilateral injection of the toxin directly into major efferent projection of the nigrostriatal bundle.
Unilaterally lesioning of the Medial Forebrain Bundle (MFB) by 6-OHDA causes unilaterally destruction of the dopaminergic neurons of the nigrostriatal pathway leading to asymmetry in motor behavior of rats. […] More specifically, administration of the DA-releasing agent D-amphetamine creates a dopamine imbalance that favors the nonlesioned nigrostriatal projection and thus produces clockwise rotations. […] Drug-induced rotations are measured using an automated rotometer consisting of a rotation bowl and a swivel attached to the torso of the rat.
Male adult Sprague-Dawley rats weighing 250-300 g were lesioned with 6-OHDA in the middle forebrain bundle (MFB). Rats were anesthetized with Ketamine-Xylazine (85:15) 0.1 ml/100 g and mounted in the stereotaxic apparatus. 6-OHDA was injected into unilateral MFB according to the following stereotaxic coordinates: AP-2.8 mm, ML-2 mm relatively to the bregma, and DV-9 relatively from the Dura. The injection rate was 1 μl/min using an injection pump and Hamilton micro-syringe. […]

SMILES | brain dopamine levels (MPTP mouse model of PD [1]) | F (% of IV dose) [2] [%] | AUC ([2]; iv) | CL ([2]; iv) [mL/min/kg] | T1/2 ([2]; iv) [min] | Vss ([2]; iv) | dopamine content compared to naïve mice (MPTP mouse model of PD [3]; acute administration, rasagiline 0.1, 0.12 or 0.15 mg/kg (similar effect)) | dopamine levels compared to naïve mice (MPTP mouse model of PD [3]; rasagiline 0.1 mg/kg) [%] | dopamine levels compared to naïve mice (MPTP mouse model of PD [3]; rasagiline 0.12 mg/kg) [%] | dopamine levels compared to naïve mice (MPTP mouse model of PD [3]; rasagiline 0.15 mg/kg) [%] | amphetamine-induced net rotation (CW-CCW) (6-OHDA rat model of PD)
NC1CCc2ccccc21 (centres unmarked) [aminoindan, 1-aminoindan] | significant restoration of dopamine levels |  |  |  |  |  |  |  |  |  | 
C#CCN[C@@H]1CCc2ccccc21 [rasagiline, R(+)—N-propargyl-1-aminoindan] |  | ~100 | 23,641 ± 3,481 hr * ng/ml | 54.3 ± 7.1 | 42.7 ± 5.5 | 2,404 ± 408 ml/Kg | around 60% | 57 | 74 | 88 | significantly improved effect in net rotation
